Measurements reported in ChEMBL document CHEMBL1201862, “PubChem BioAssay data set” (2004).
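Dose response: 5 concentrations. Exposure: 48 h. Format: 96-well plates. Endpoint: linear interpolation; highest concentration if not reached. GI50 is the concentration that inhibits growth by half.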 Calls of active or inactive are those of the source. Rule as the data show it: active = GI50 up to about 1.1 µM and inactive = higher.

Experiments:
Experiment in all cases: DTP human tumour cell line panel, 48 h
DU-145 = system: DU-145
MCF7 = system: MCF7
PC-3 = system: PC-3
SK-MEL-5 = system: SK-MEL-5
CAKI-1 = system: CAKI-1
OVCAR-3 = system: OVCAR-3
CCRF-CEM = system: CCRF-CEM
NCI-H460 = system: NCI-H460
MDA-N = system: MDA-N
LOX IMVI = system: LOX IMVI
IGROV-1 = system: IGROV-1
HCC 2998 = system: HCC 2998
SK-MEL-28 = system: SK-MEL-28
U-251 = system: U-251
SR = system: SR
HL-60 = system: HL-60
Hs-578T = system: Hs-578T
M14 = system: M14
EKVX = system: EKVX
A549 = system: A549
SK-MEL-2 = system: SK-MEL-2
TK-10 = system: TK-10
HT-29 = system: HT-29
SNB-75 = system: SNB-75
ACHN = system: ACHN
SF-268 = system: SF-268
HCT-116 = system: HCT-116
RPMI-8226 = system: RPMI-8226
MDA-MB-435 = system: MDA-MB-435
UACC-257 = system: UACC-257
SF-539 = system: SF-539
NCI-H226 = system: NCI-H226
NCI-H23 = system: NCI-H23
UACC-62 = system: UACC-62
NCI-H522 = system: NCI-H522
COLO 205 = system: COLO 205
SW-620 = system: SW-620
SK-OV-3 = system: SK-OV-3
SF-295 = system: SF-295
MOLT-4 = system: MOLT-4
786-0 = system: 786-0
SN12C = system: SN12C
OVCAR-5 = system: OVCAR-5
NCI/ADR-RES = system: NCI/ADR-RES
OVCAR-4 = system: OVCAR-4
BT-549 = system: BT-549
OVCAR-8 = system: OVCAR-8
HOP-62 = system: HOP-62
MDA-MB-231 = system: MDA-MB-231
UO-31 = system: UO-31
A498 = system: A498
HCT-15 = system: HCT-15
T47D = system: T47D
KM12 = system: KM12
SNB-19 = system: SNB-19
Malme-3M = system: Malme-3M
K562 = system: K562
HOP-92 = system: HOP-92
RXF 393 = system: RXF 393

## CC1=CC[C@@H]2[C@@H](CC[C@@]2(C)O)C(C)(C)[C@H]1CC[C@@H]1[C@@]2(C)CCC(=O)C(C)(C)O[C@@H]2CC[C@]1(C)O
DU-145
  GI50: 42.9 µM (inactive)
MCF7
  GI50: 37.3 µM (inactive)
PC-3
  GI50: 29.4 µM (inactive)
SK-MEL-5
  GI50: 17.2 µM (inactive)
CAKI-1
  GI50: 36.1 µM (inactive)
OVCAR-3
  GI50: 37.7 µM (inactive)
CCRF-CEM
  GI50: 23.3 µM (inactive)
NCI-H460
  GI50: 17.7 µM (inactive)
MDA-N
  GI50: 25 µM (inactive)
LOX IMVI
  GI50: 19.1 µM (inactive)
IGROV-1
  GI50: 28.9 µM (inactive)
HCC 2998
  GI50: 18.7 µM (inactive)
SK-MEL-28
  GI50: 31.2 µM (inactive)
U-251
  GI50: 31.9 µM (inactive)
SR
  GI50: 19 µM (inactive)
HL-60
  GI50: 16.9 µM (inactive)
Hs-578T
  GI50: 22.8 µM (inactive)
M14
  GI50: 25.3 µM (inactive)
EKVX
  GI50: 42.1 µM (inactive)
A549
  GI50: 24.7 µM (inactive)
SK-MEL-2
  GI50: 36.7 µM (inactive)
TK-10
  GI50: 83.4 µM (inactive)
HT-29
  GI50: > 10 µM (inactive)
SNB-75
  GI50: 65.6 µM (inactive)
ACHN
  GI50: 19.5 µM (inactive)
SF-268
  GI50: 29.9 µM (inactive)
HCT-116
  GI50: 19.9 µM (inactive)
RPMI-8226
  GI50: 19.7 µM (inactive)
MDA-MB-435
  GI50: 30.7 µM (inactive)
UACC-257
  GI50: 30.3 µM (inactive)
SF-539
  GI50: 17.3 µM (inactive)
NCI-H226
  GI50: 22.5 µM (inactive)
NCI-H23
  GI50: 34.3 µM (inactive)
UACC-62
  GI50: 16.1 µM (inactive)
NCI-H522
  GI50: 18.5 µM (inactive)
COLO 205
  GI50: 25.6 µM (inactive)
SW-620
  GI50: 32.7 µM (inactive)
SK-OV-3
  GI50: 74.3 µM (inactive)
SF-295
  GI50: 0.762 µM (active)
MOLT-4
  GI50: 20.7 µM (inactive)
786-0
  GI50: 24.7 µM (inactive)
SN12C
  GI50: 22.4 µM (inactive)
OVCAR-5
  GI50: 71 µM (inactive)
NCI/ADR-RES
  GI50: 21.9 µM (inactive)
OVCAR-4
  GI50: 39.1 µM (inactive)
BT-549
  GI50: 19 µM (inactive)
OVCAR-8
  GI50: 24.8 µM (inactive)
HOP-62
  GI50: 32.9 µM (inactive)
MDA-MB-231
  GI50: 45.6 µM (inactive)
UO-31
  GI50: 22.5 µM (inactive)
A498
  GI50: 31 µM (inactive)
HCT-15
  GI50: 14.9 µM
T47D
  GI50: 43.5 µM (inactive)
KM12
  GI50: 15.2 µM (inactive)
SNB-19
  GI50: 26.9 µM (inactive)

## COC(=O)c1c(O)ccc2c1c1c(n2-c2ccc(OC)cc2)C(=O)c2ccccc2C1=O
DU-145
  GI50: 21.5 µM (inactive)
MCF7
  GI50: 16.6 µM (inactive)
PC-3
  GI50: 20.7 µM (inactive)
SK-MEL-5
  GI50: 44.3 µM (inactive)
CAKI-1
  GI50: 14.1 µM (inactive)
OVCAR-3
  GI50: 22.9 µM (inactive)
CCRF-CEM
  GI50: 15.2 µM (inactive)
NCI-H460
  GI50: 5.04 µM (inactive)
MDA-N
  GI50: 57.1 µM (inactive)
LOX IMVI
  GI50: 21.7 µM (inactive)
IGROV-1
  GI50: 16.6 µM (inactive)
HCC 2998
  GI50: 3.62 µM (inactive)
SK-MEL-28
  GI50: 29.9 µM (inactive)
U-251
  GI50: 13 µM (inactive)
HL-60
  GI50: > 100 µM (inactive)
Hs-578T
  GI50: 16.9 µM (inactive)
M14
  GI50: 63.2 µM (inactive)
Malme-3M
  GI50: 24.4 µM (inactive)
EKVX
  GI50: 16.6 µM (inactive)
A549
  GI50: 10.1 µM (inactive)
SK-MEL-2
  GI50: 26.1 µM (inactive)
TK-10
  GI50: 12 µM (inactive)
HT-29
  GI50: 4.14 µM (inactive)
SNB-75
  GI50: 23.9 µM (inactive)
ACHN
  GI50: 12.8 µM (inactive)
SF-268
  GI50: 14.8 µM (inactive)
HCT-116
  GI50: 16.9 µM (inactive)
K562
  GI50: 55.2 µM (inactive)
RPMI-8226
  GI50: 9.73 µM (inactive)
MDA-MB-435
  GI50: 66.8 µM (inactive)
UACC-257
  GI50: 64.9 µM (inactive)
SF-539
  GI50: 15.3 µM (inactive)
NCI-H226
  GI50: 25.5 µM (inactive)
NCI-H23
  GI50: 36.7 µM (inactive)
NCI-H522
  GI50: 15.1 µM (inactive)
COLO 205
  GI50: 1.94 µM (inactive)
SW-620
  GI50: 42.3 µM (inactive)
SK-OV-3
  GI50: 19.3 µM (inactive)
SF-295
  GI50: 18.7 µM (inactive)
MOLT-4
  GI50: 8.28 µM (inactive)
786-0
  GI50: 15.7 µM (inactive)
SN12C
  GI50: 28.9 µM (inactive)
OVCAR-5
  GI50: 30.7 µM (inactive)
NCI/ADR-RES
  GI50: 14.7 µM (inactive)
OVCAR-4
  GI50: 18.6 µM (inactive)
HOP-92
  GI50: 14.8 µM (inactive)
RXF 393
  GI50: 13 µM (inactive)
BT-549
  GI50: 22 µM (inactive)
OVCAR-8
  GI50: 12.6 µM (inactive)
HOP-62
  GI50: 20.2 µM (inactive)
MDA-MB-231
  GI50: 16.5 µM (inactive)
UO-31
  GI50: 11.9 µM (inactive)
A498
  GI50: > 100 µM (inactive)
HCT-15
  GI50: 18.3 µM
T47D
  GI50: 11.7 µM (inactive)
KM12
  GI50: 14.1 µM (inactive)
SNB-19
  GI50: 20.6 µM (inactive)

## Cc1ccn2c(CCc3nnc4cc(C)ccn34)nnc2c1
DU-145
  GI50: > 100 µM (inactive)
MCF7
  GI50: > 100 µM (inactive)
PC-3
  GI50: > 100 µM (inactive)
SK-MEL-5
  GI50: > 100 µM (inactive)
CAKI-1
  GI50: > 100 µM (inactive)
OVCAR-3
  GI50: > 100 µM (inactive)
NCI-H460
  GI50: > 100 µM (inactive)
MDA-N
  GI50: > 100 µM (inactive)
IGROV-1
  GI50: > 100 µM (inactive)
SK-MEL-28
  GI50: > 100 µM (inactive)
U-251
  GI50: > 100 µM (inactive)
SR
  GI50: 15 µM (inactive)
HL-60
  GI50: 0.129 µM (active)
Hs-578T
  GI50: > 100 µM (inactive)
M14
  GI50: > 100 µM (inactive)
Malme-3M
  GI50: > 100 µM (inactive)
EKVX
  GI50: > 100 µM (inactive)
A549
  GI50: > 100 µM (inactive)
SK-MEL-2
  GI50: > 100 µM (inactive)
TK-10
  GI50: > 100 µM (inactive)
HT-29
  GI50: > 100 µM (inactive)
SNB-75
  GI50: > 100 µM (inactive)
ACHN
  GI50: > 100 µM (inactive)
SF-268
  GI50: > 100 µM (inactive)
HCT-116
  GI50: > 100 µM (inactive)
RPMI-8226
  GI50: > 100 µM (inactive)
MDA-MB-435
  GI50: > 100 µM (inactive)
UACC-257
  GI50: > 100 µM (inactive)
SF-539
  GI50: > 100 µM (inactive)
NCI-H226
  GI50: > 100 µM (inactive)
NCI-H23
  GI50: > 100 µM (inactive)
UACC-62
  GI50: > 100 µM (inactive)
NCI-H522
  GI50: > 100 µM (inactive)
COLO 205
  GI50: > 100 µM (inactive)
SW-620
  GI50: > 100 µM (inactive)
SK-OV-3
  GI50: > 100 µM (inactive)
SF-295
  GI50: > 100 µM (inactive)
MOLT-4
  GI50: > 100 µM (inactive)
786-0
  GI50: > 100 µM (inactive)
SN12C
  GI50: > 100 µM (inactive)
OVCAR-5
  GI50: > 100 µM (inactive)
NCI/ADR-RES
  GI50: > 100 µM (inactive)
OVCAR-4
  GI50: > 100 µM (inactive)
HOP-92
  GI50: > 100 µM (inactive)
RXF 393
  GI50: > 100 µM (inactive)
BT-549
  GI50: > 100 µM (inactive)
OVCAR-8
  GI50: > 100 µM (inactive)
HOP-62
  GI50: > 100 µM (inactive)
MDA-MB-231
  GI50: > 100 µM (inactive)
UO-31
  GI50: > 100 µM (inactive)
A498
  GI50: > 100 µM (inactive)
HCT-15
  GI50: > 100 µM
T47D
  GI50: > 100 µM (inactive)
KM12
  GI50: > 100 µM (inactive)
SNB-19
  GI50: > 100 µM (inactive)
